According to US12167742B2, “Nutritional composition comprising 6′SL and LNT in combination to improve the gastrointestinal barrier function” (SOCIETE DES PRODUITS NESTLE S.A., priority 2018, dated 2024):

Biological target: GPR35 (Homo sapiens, UniProt Q9HC97)
Experiment: PathHunter β-Arrestin assay, activation of GPR35 expressed in cultured cells (DiscoverX)
Assay type: cell-based
Details: for activation of GPR35: Example 2, HMO screening, highest concentration tested 10 mM; for EC50: dose-response by 3× dilutions from 10 mM, duplicate, β-arrestin recruitment
Description: Six human milk oligosaccharides (LNnT, LNT, 2′FL, diFL, 6′SL and 3′SL) were screened for their ability to activate the GPR35 receptor in an in vitro assay. The screening was conducted by DiscoverX (Fremont, Ca, USA) using the PathHunter β-Arresin assay. This assay monitors the activation of GPR35 expressed in cultured cells, using Enzyme Fragment Complementation with β-galactosidase (β-Gal) as the functional reporter. […] EA is fused to β-Arrestin and PK is fused to GPR35. When the GPR35 is activated and β-Arrestin is recruited to the receptor, PK and EA complementation occurs, restoring β-Gal activity, which is measured using chemiluminescent Detection Reagents.
The GPR35 cell line was expanded from frozen stocks and cultured according to standard procedures. Cells were seeded in a total volume of 20 μL into white walled, 384-well microplates and incubated at 37° C. for the appropriate time prior to testing. All testing was done in duplicate.
HMO samples were shipped to DiscoverX as concentrated stocks in Phosphate Buffered saline. On the test day, a 5× compound working intermediate was prepared in PBS. An amount of 5 μL of 5× sample was added to cells and incubated at room temperature for 3 to 5 hours.
Assay signal was generated through a single addition of 12.5 μL (50% v/v) of PathHunter Detection reagent cocktail, followed by one-hour incubation at room temperature. Microplates were read following signal generation with a PerkinElmer Envision™ instrument for chemiluminescent signal detection.
Zaprinast (which is known to be an activator of GPR35) was used as positive control.
Percentage activity was calculated using the following formula: % Activity=100%×(mean RLU of test sample−mean RLU of vehicle control)/(mean MAX control ligand−mean RLU of vehicle control).
Dose-responses were generated by iterative 3× dilutions of the highest concentration tested (10 mM).
The samples were diluted in 1×PBS (pH˜7) at 5× concentrations and sent to DiscoverX. The GPR35 activation assay was performed as described in Example 2.

Chain of GPR35 (Q9HC97 whole entry): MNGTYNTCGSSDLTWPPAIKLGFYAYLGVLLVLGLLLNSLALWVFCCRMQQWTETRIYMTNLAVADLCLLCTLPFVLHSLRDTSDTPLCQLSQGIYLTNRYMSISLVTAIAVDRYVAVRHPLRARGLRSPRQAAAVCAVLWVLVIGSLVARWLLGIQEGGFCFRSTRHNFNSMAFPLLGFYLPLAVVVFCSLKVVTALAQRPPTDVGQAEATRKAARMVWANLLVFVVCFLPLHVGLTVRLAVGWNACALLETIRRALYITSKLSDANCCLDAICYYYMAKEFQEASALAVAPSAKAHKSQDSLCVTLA

| activation of GPR35 | EC50 [mM] | SMILES |
| --- | --- | --- |
| No activation |  | CC(=O)N[C@H]1[C@H](O[C@H]2[C@@H](O)[C@@H](CO)O[C@@H](O[C@H]3[C@H](O)[C@@H](O)C(O)O[C@@H]3CO)[C@@H]2O)O[C@H](CO)[C@@H](O[C@@H]2O[C@H](CO)[C@H](O)[C@H](O)[C@H]2O)[C@@H]1O (mixture of isomers) [LNnT, lacto-N-neotetraose] |
| No activation |  | C[C@@H]1O[C@@H](O[C@H]2[C@H](O[C@H]3[C@H](O[C@@H]4O[C@@H](C)[C@@H](O)[C@@H](O)[C@@H]4O)[C@@H](O)C(O)O[C@@H]3CO)O[C@H](CO)[C@H](O)[C@@H]2O)[C@@H](O)[C@H](O)[C@@H]1O (some centres unmarked) [diFL, difucosyllactose] |
|  | 6.5 | CC(=O)N[C@H]1[C@H]([C@H](O)[C@H](O)CO)O[C@@](OC[C@H]2O[C@@H](O[C@H]3[C@H](O)[C@@H](O)[C@H](O)O[C@@H]3CO)[C@H](O)[C@@H](O)[C@H]2O)(C(=O)O)C[C@@H]1O [6′SL, 6′-sialyllactose] |
|  | 4.5 | CC(=O)N[C@H]1[C@H](O[C@H]2[C@@H](O)[C@@H](CO)O[C@@H](O[C@H]3[C@H](O)[C@@H](O)C(O)O[C@@H]3CO)[C@@H]2O)O[C@H](CO)[C@@H](O)[C@@H]1O[C@@H]1O[C@H](CO)[C@H](O)[C@H](O)[C@H]1O (some centres unmarked) [LNT, lacto-N-tetraose] |
| No activation |  | CC(=O)N[C@H]1[C@H]([C@H](O)[C@H](O)CO)O[C@@](O[C@H]2[C@@H](O)[C@@H](CO)O[C@@H](O[C@H]3[C@H](O)[C@@H](O)C(O)O[C@@H]3CO)[C@@H]2O)(C(=O)O)C[C@@H]1O (some centres unmarked) [3′SL, 3′ sialyllactose] |
